Test results from ChEMBL document CHEMBL1128093, “Discovery and optimization of indole pyrrolothiazole paf antagonists” (Bioorg Med Chem Lett, 1995).

Legend:
Assay type in all cases: functional
Rattus norvegicus [1] = experiment: In vivo activity by inhibition of PAF-induced cutaneous vascular permeability in rats after peroral administration; settings: po
Rattus norvegicus [2] = experiment: In vivo activity by inhibition of PAF-induced cutaneous vascular permeability in rats after intravenous administration
Rattus norvegicus [3] = experiment: xIn vivo activity by inhibition of PAF-induced cutaneous vascular permeability in rats after peroral administration; settings: po
Rattus norvegicus [4] = experiment: In vivo activity by inhibition of PAF-induced cutaneous vascular permeability in rats after peroral administration of 30 mg/kg dose; settings: route oral
Rattus norvegicus [5] = experiment: In vivo activity by inhibition of PAF-induced cutaneous vascular permeability in rats after intravenous administration of 1 mg/kg dose
Rattus norvegicus [6] = experiment: In vivo activity by inhibition of PAF-induced cutaneous vascular permeability in rats after peroral administration of 10 mg/kg dose; settings: route oral

SMILES | ED50 (Rattus norvegicus [1]) [mg/kg] | ED50 (Rattus norvegicus [2]) [mg/kg] | also measured
CN(C)C(=O)n1cc(C(=O)c2ccn3c2CSC3c2cccnc2)c2ccc(OCc3ccccc3)cc21 (stereo not given) | 3.3 | – | –
CN(C)C(=O)n1cc(C(=O)c2ccn3c2CSC3c2cccnc2)c2ccc(-c3ccccc3)cc21 (stereo not given) | 0.06 | 0.03 | –
CN(C)S(=O)(=O)n1cc(C(=O)c2ccn3c2CSC3c2cccnc2)c2ccc(-c3ccc(F)cc3)cc21 (stereo not given) | – | – | ED50 (Rattus norvegicus [3]): 5.5 mg/kg
CNC(=O)n1cc(C(=O)c2ccn3c2CSC3c2cccnc2)c2ccc(-c3ccc(F)cc3)cc21 (stereo not given) | 0.12 | – | –
CN(C)C(=O)n1cc(C(=O)c2ccn3c2CSC3c2cccnc2)c2ccccc21 (stereo not given) | – | – | inhibition in vivo at 30 mg/kg (Rattus norvegicus [4]): 34%
CCNC(=O)n1cc(C(=O)c2ccn3c2CSC3c2cccnc2)c2ccc(-c3ccc(F)cc3)cc21 (stereo not given) | – | 0.18 | –
CN(C)C(=O)n1cc(C(=O)c2ccn3c2CSC3c2cccnc2)c2ccc(Cc3ccccc3)cc21 (stereo not given) | – | 0.09 | –
NNC(=O)n1cc(C(=O)c2ccn3c2CSC3c2cccnc2)c2ccc(-c3ccc(F)cc3)cc21 (stereo not given) | 0.57 | 0.04 | –
CN(C)C(=O)n1cc(C(=O)c2ccn3c2CSC3c2cccnc2)c2ccc(Sc3ccc(F)cc3)cc21 (stereo not given) | – | 0.27 | –
CN(C)C(=O)n1cc(C(=O)c2ccn3c2CSC3c2cccnc2)c2ccc(Oc3ccc(F)cc3)cc21 (stereo not given) | – | 0.03 | –
Cn1cc(C(=O)c2ccn3c2CSC3c2cccnc2)c2ccc(-c3ccc(F)cc3)cc21 (stereo not given) | – | 0.09 | –
CN(C)C(=O)n1cc(C(=O)c2ccn3c2CSC3c2cccnc2)c2ccc(Br)cc21 (stereo not given) | 1.5 | – | inhibition in vivo at 1 mg/kg (Rattus norvegicus [5]): 41%
CN(C)C(=O)n1cc(C(=O)c2ccn3c2CSC3c2cccnc2)c2ccc(Cl)cc21 (stereo not given) | 1.4 | – | inhibition in vivo at 1 mg/kg (Rattus norvegicus [5]): 42%
CN(C)C(=O)n1cc(C(=O)c2ccn3c2CSC3c2cccnc2)c2ccc(-c3ccc(F)cc3)cc21 (stereo not given) | 0.06 | 0.006 | –
CN(C)C(=O)Cn1cc(C(=O)c2ccn3c2CSC3c2cccnc2)c2ccc(-c3ccc(F)cc3)cc21 (stereo not given) | 0.12 | 0.009 | –
O=C(c1ccn2c1CSC2c1cccnc1)c1cn(CCO)c2cc(-c3ccc(F)cc3)ccc12 (stereo not given) | 0.76 | 0.1 | –
CN(C)C(=O)n1cc(C(=O)c2ccn3c2CSC3c2cccnc2)c2ccc(-c3cccnc3)cc21 (stereo not given) | – | – | inhibition in vivo at 10 mg/kg (Rattus norvegicus [6]): 58%
NCCn1cc(C(=O)c2ccn3c2CSC3c2cccnc2)c2ccc(-c3ccc(F)cc3)cc21 (stereo not given) | 1.3 | – | –
O=C(O)CCn1cc(C(=O)c2ccn3c2CSC3c2cccnc2)c2ccc(-c3ccc(F)cc3)cc21 (stereo not given) | 5.1 | 0.1 | –
O=C(c1ccn2c1CSC2c1cccnc1)c1c[nH]c2cc(-c3ccc(F)cc3)ccc12 (stereo not given) | 6.4 | – | –
NC(=O)n1cc(C(=O)c2ccn3c2CSC3c2cccnc2)c2ccc(-c3ccc(F)cc3)cc21 (stereo not given) | 0.06 | 0.01 | –
